Assay results published in PubChem BioAssay (NCI).
Several values for one entry are separate records, joined by “and”; a condition that tells them apart may be missing. Identical values can stand only once.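 1) Cells in 96-well plates. 2) Compound, 48 h, 5 concentrations. 3) Linear interpolation between surrounding doses. 4) Unreached endpoint = highest concentration. Abbreviation: GI50, concentration required for 50% inhibition of growth. At the TGI there is no net growth.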

Experiments:
Experiment in all cases: growth of human tumour cells (NCI), 48 h
EKVX NSCLC = system: EKVX NSCLC
HCT-15 colon = system: HCT-15 colon
HOP-92 NSCLC = system: HOP-92 NSCLC
LOX IMVI melanoma = system: LOX IMVI melanoma
NCI-H226 lung = system: NCI-H226 lung
OVCAR-8 ovarian = system: OVCAR-8 ovarian
SK-MEL-2 melanoma = system: SK-MEL-2 melanoma
UO-31 renal = system: UO-31 renal
MDA-MB-231 breast = system: MDA-MB-231 breast
HS 578T breast = system: HS 578T breast

Row | SMILES | TGI (EKVX NSCLC) | TGI (HCT-15 colon) | TGI (HOP-92 NSCLC) | TGI (LOX IMVI melanoma) | TGI (NCI-H226 lung) | TGI (OVCAR-8 ovarian) | TGI (SK-MEL-2 melanoma) | TGI (UO-31 renal) | GI50 (EKVX NSCLC) | GI50 (HCT-15 colon) | GI50 (HOP-92 NSCLC) | GI50 (LOX IMVI melanoma) | GI50 (MDA-MB-231 breast) | TGI (MDA-MB-231 breast) | GI50 (NCI-H226 lung) | GI50 (OVCAR-8 ovarian) | GI50 (SK-MEL-2 melanoma) | GI50 (UO-31 renal) | TGI (HS 578T breast)
1 | O=C1c2ccoc2C(=O)c2oc(=O)ccc21 | 35.2 µM | 24.9 µM | 39.8 µM | 10.7 µM | > 56.7 µM | 14.9 µM | 22 µM | 14.9 µM | – | – | – | – | – | – | – | – | – | – | –
2 | COc1ccc2nc(-c3ccc(O)cc3)ccc2c1 | > 100 µM | – | > 100 µM | > 100 µM | > 100 µM | > 100 µM | – | > 100 µM | – | – | – | – | – | – | – | – | – | – | –
3 | CC(C)(C)c1cc(C(OCCl)(C(F)(F)F)C(F)(F)F)c2c(c1)C(C(F)(F)F)(C(F)(F)F)OC21c2ccccc2C(=O)c2ccccc21 | > 100 µM | > 100 µM | – | – | > 100 µM | > 100 µM | > 100 µM | > 100 µM | – | – | – | – | – | – | – | – | – | – | –
4 | Cc1ccc(-c2nc(C(Cl)Cl)nc3cc(C)nn23)cc1 | 6.45 µM | 4.61 µM | 7.64 µM | > 100 µM | > 100 µM | > 100 µM | > 100 µM | > 100 µM | 2.19 µM | 1.24 µM | 1.95 µM | 4.01 µM | 2.34 µM | > 100 µM | > 100 µM | 1.67 µM | > 100 µM | 3.38 µM | –
5 | O=CC(O)C(O)C(OC1OC(CO)C(O)C(O)C1O)C(O)CO (configuration not stated) (tested in a mixture with another compound) | – | 54 µM | > 100 µM | – | > 100 µM | > 100 µM | > 100 µM | > 100 µM | – | – | – | – | – | 91.5 µM | – | – | – | – | > 100 µM
6 | C1=C(c2ccccc2)C(OC2Oc3ccccc3C=C2c2ccccc2)Oc2ccccc21 (configuration not stated) | > 100 µM | > 100 µM | > 100 µM | > 100 µM | > 100 µM | > 100 µM | > 100 µM | > 100 µM | – | – | – | – | – | – | – | – | – | – | –
7 | O=C(O)C1=C(C(=O)O)Oc2ccccc2O1 | > 100 µM | > 100 µM | > 100 µM | > 100 µM | > 100 µM | > 100 µM | > 100 µM | > 100 µM | – | – | – | – | – | – | – | – | – | – | –
8 | COc1cccc2c1[C@H]1OC(=O)NC1CCCCC2 (some centres not stated) | > 100 µM | > 100 µM | – | > 100 µM | > 100 µM | > 100 µM | > 100 µM | > 100 µM | – | – | – | – | – | – | – | – | – | – | –
9 | Nc1ncnc2c1ncn2CCOC(c1ccccc1)P(=O)(O)O (configuration not stated) | > 100 µM | > 100 µM | – | > 100 µM | > 100 µM | > 100 µM | > 100 µM | > 100 µM | – | – | – | – | – | – | – | – | – | – | –
10 | O=C(CCC(=O)C1Cc2ccccc2C1=O)Nc1cccc(C(F)(F)F)c1 (configuration not stated) | > 100 µM | > 100 µM | > 100 µM | > 100 µM | > 100 µM | > 100 µM | > 100 µM | > 100 µM | – | – | – | – | – | – | – | – | – | – | –
11 | O=c1[nH]c(=O)n(C2CC(O)C(O)C(CO)O2)cc1F (configuration not stated) | > 100 µM | > 100 µM | > 100 µM | > 100 µM | > 100 µM | > 100 µM | > 100 µM | > 100 µM | – | – | – | – | – | – | – | – | – | – | –
12 | CC(=O)c1c(O)c2c([nH]c1=O)CCCC2 | > 100 µM | > 100 µM | > 100 µM | > 100 µM | – | > 100 µM | – | 31.2 µM | – | – | – | – | – | – | – | – | – | – | –
13 | O=S(=O)(Cc1ccccc1)SCc1ccccc1 | > 100 µM | 40.2 µM | 51.2 µM | 30.9 µM | 54.4 µM | 28.8 µM | > 70.9 µM | > 100 µM | – | – | – | – | – | – | – | – | – | – | –
14 | Nc1nc(-c2ccccc2)cc(-c2cc(Cl)ccc2O)n1 | > 100 µM | > 100 µM | > 100 µM | > 100 µM | > 100 µM | > 100 µM | – | > 100 µM | – | – | – | – | – | – | – | – | – | – | –
15 | CCOC(=O)COc1cccc2occc(=O)c12 | > 100 µM | > 100 µM | > 100 µM | > 100 µM | – | > 100 µM | > 100 µM | > 100 µM | – | – | – | – | – | – | – | – | – | – | –
16 | Nc1c(-c2nc3ccccc3s2)[n+]([O-])c2ccccc2[n+]1[O-] | > 100 µM | – | 62.3 µM | – | > 100 µM | > 100 µM | 74.9 µM | 77.7 µM | – | – | – | – | – | – | – | – | – | – | –
17 | O=C(O)Cn1ccc(=O)c2c([N+](=O)[O-])cccc21 | – | > 100 µM | – | – | > 100 µM | > 100 µM | > 100 µM | > 100 µM | – | – | – | – | – | > 100 µM | – | – | – | – | > 100 µM
18 | CC1CCC2c3c([nH]c4ccccc34)C3C(=O)N(c4ccccc4)C(=O)C3C2C1 (configuration not stated) | > 250 µM | > 250 µM | 56.8 µM | > 250 µM | 96.4 µM and 161 µM | > 250 µM | 91.4 µM | > 250 µM | – | – | – | 153 µM | – | – | 62.3 µM | > 250 µM | – | 117 µM | –
19 | C1CCN2CC3CONC3C2C1 (configuration not stated) | > 100 µM | > 100 µM | – | > 100 µM | > 100 µM | > 100 µM | > 100 µM | > 100 µM | – | – | – | – | – | – | – | – | – | – | –
